Data from ChEMBL document CHEMBL4368940, “Development of a novel NURR1/NOT agonist from hit to lead and candidate for the potential treatment of Parkinson's disease” (Bioorg Med Chem Lett, 2019).

Tests used:
[1] = target: Nuclear receptor subfamily 4 group A member 2 (Homo sapiens, UniProt P43354); assay: Agonist activity at full-length Gal4-fused NOT (unknown origin) expressed in CHO cells by luciferase reporter gene assay; assay type: cell-based
[2] = target: Nuclear receptor subfamily 4 group A member 2 (Mus musculus) (UniProt Q06219); assay: (§1) Agonist activity at Nurr1 in mouse N2A cells harboring NBRE by luciferase reporter gene assay; assay type: cell-based
Nuclear receptor subfamily 4 group A member 2 (Mus musculus), sequence (Q06219 whole entry): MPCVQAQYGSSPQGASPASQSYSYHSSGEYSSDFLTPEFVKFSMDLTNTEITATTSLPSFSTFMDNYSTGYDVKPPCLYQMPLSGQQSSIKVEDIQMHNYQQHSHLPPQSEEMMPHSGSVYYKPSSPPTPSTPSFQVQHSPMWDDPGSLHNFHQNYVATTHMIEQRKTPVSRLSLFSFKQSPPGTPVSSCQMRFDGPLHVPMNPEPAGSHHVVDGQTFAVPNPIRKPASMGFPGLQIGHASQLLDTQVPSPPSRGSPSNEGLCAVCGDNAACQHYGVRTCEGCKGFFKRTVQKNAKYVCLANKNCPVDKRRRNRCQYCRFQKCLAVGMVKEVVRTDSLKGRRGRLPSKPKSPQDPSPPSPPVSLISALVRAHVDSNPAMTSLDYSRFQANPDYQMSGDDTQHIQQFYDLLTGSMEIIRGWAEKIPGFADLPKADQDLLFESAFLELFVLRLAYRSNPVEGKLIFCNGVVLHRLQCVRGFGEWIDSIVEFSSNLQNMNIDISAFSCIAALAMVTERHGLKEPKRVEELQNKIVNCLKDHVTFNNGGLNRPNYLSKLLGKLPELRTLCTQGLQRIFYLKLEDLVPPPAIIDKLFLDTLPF

[3] = target: Nuclear receptor subfamily 4 group A member 2 (Mus musculus, UniProt Q06219); assay: as §1; assay type: cell-based
Nuclear receptor subfamily 4 group A member 2 (Mus musculus, UniProt Q06219), sequence (Q06219 whole entry): as above

[4] = Clearance in human hepatocytes assessed per million cells; assay type: ADME, cell-based, Hepatocyte
[5] = target: hERG (Homo sapiens, UniProt Q12809); assay: Inhibition of human ERG at 10 uM
hERG, sequence (Q12809 whole entry): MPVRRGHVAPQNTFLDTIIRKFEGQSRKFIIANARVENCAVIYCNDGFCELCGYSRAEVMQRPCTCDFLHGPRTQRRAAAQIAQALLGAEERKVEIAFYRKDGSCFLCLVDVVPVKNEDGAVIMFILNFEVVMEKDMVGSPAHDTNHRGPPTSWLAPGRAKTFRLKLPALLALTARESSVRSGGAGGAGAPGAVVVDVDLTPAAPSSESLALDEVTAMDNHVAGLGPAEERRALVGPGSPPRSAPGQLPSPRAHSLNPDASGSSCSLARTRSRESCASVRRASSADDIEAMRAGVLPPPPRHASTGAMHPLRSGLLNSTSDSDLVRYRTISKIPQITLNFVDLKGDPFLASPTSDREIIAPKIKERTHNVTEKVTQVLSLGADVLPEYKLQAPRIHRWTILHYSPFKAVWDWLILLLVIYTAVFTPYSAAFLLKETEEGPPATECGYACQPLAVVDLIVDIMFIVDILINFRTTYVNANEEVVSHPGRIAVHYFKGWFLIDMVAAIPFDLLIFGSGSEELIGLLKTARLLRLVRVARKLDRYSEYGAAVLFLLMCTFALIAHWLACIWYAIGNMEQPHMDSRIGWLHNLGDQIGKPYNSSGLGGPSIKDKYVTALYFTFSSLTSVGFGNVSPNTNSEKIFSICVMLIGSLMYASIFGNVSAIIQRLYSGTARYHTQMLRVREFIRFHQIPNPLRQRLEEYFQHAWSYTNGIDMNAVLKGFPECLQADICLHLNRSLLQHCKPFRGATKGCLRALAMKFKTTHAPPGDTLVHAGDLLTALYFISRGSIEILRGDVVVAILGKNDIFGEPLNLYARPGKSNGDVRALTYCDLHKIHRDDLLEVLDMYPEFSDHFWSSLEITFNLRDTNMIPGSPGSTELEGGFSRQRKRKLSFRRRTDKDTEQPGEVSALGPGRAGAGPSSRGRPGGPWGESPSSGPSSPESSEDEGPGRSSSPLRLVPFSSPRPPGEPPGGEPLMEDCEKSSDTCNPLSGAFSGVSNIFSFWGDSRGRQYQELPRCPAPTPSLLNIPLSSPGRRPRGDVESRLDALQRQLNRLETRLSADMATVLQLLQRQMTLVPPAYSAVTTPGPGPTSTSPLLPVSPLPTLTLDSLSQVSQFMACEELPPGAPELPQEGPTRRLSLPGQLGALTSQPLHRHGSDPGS

Nuclear receptor subfamily 4 group A member 2 (Homo sapiens, UniProt P43354), sequence (P43354 whole entry, the tested form may be a part): as the sequence (Q06219 whole entry) above, with S131T, S134G, D354E counted along it

NC(=O)c1cccc(-c2ccc3nc(-c4ccc(Cl)cc4)cn3c2)c1
Emax [1]: 210%

OC(c1ccccc1)c1cccc(-c2ccc3nc(-c4ccc(Cl)cc4)cn3c2)c1 (stereo not drawn)
EC50 ([1]; read-out: EC50): > 3000 nM

Cc1c(CO)cccc1-c1ccc2nc(-c3ccc(Cl)cc3)cn2c1
EC50 ([1]; read-out: EC50): > 1000 nM

O=C(Nc1cc(F)ccc1F)c1cn2cc(-c3ccccn3)ccc2n1
EC50 ([1]; read-out: EC50): > 1000 nM
Emax [2]: 68%
EC50 [3]: 1 nM

O=C(Nc1cc(F)cc(F)c1)c1cn2cc(-c3ccccn3)ccc2n1
EC50 ([1]; read-out: EC50): > 1000 nM
Emax [2]: 85%
EC50 [3]: 2.5 nM

OCc1cc(-c2ccc3nc(-c4ccc(Cl)cc4)cn3c2)ccc1F
EC50 ([1]; read-out: EC50): > 1000 nM

O=C(Nc1cccc(F)c1)c1cn2cc(-c3ccccn3)ccc2n1
EC50 ([1]; read-out: EC50): > 1000 nM
Emax [2]: 103%
EC50 [3]: 1 nM

OCc1cccc(-c2ccc3nc(-c4ccc(Cl)cc4)cn3c2)c1F
EC50 ([1]; read-out: EC50): 14 nM
CLH [4]: 0.188 mL/h

N#Cc1ccccc1NC(=O)c1cn2cc(-c3ccccn3)ccc2n1
EC50 ([1]; read-out: EC50): > 1000 nM
Emax [2]: 52%
EC50 [3]: 292 nM

CNCc1cccc(-c2ccc3nc(-c4ccc(Cl)cc4)cn3c2)c1
EC50 ([1]; read-out: EC50): > 3000 nM

CCCCCCC(O)c1cccc(-c2ccc3nc(-c4ccc(Cl)cc4)cn3c2)c1 (stereo not drawn)
EC50 ([1]; read-out: EC50): > 3000 nM

Cc1cccc(-c2ccc3nc(-c4ccc(Cl)cc4)cn3c2)c1
EC50 ([1]; read-out: EC50): > 3000 nM

OCc1cccc(-c2ccc3nc(-c4ccc(Cl)cc4)cn3n2)c1
EC50 ([1]; cho): Not Active

Cc1ccc(-c2ccc3nc(-c4ccc(Cl)cc4)cn3c2)cc1CO
EC50 ([1]; read-out: EC50): > 1000 nM

O=C(Nc1cc[nH]n1)c1cn2cc(-c3ccccn3)ccc2n1
EC50 ([1]; read-out: EC50): > 1000 nM
Emax [2]: 61%

N#Cc1cccc(-c2ccc3nc(-c4ccc(Cl)cc4)cn3c2)c1
EC50 ([1]; read-out: EC50): > 3000 nM

OCc1c(F)ccc(-c2ccc3nc(-c4ccc(Cl)cc4)cn3c2)c1F
EC50 ([1]; read-out: EC50): 38 nM
CLH [4]: 0.1368 mL/h
inhibition at 10 µM [5]: 24%

O=C(Nc1cccc(F)c1F)c1cn2cc(-c3ccccn3)ccc2n1
EC50 ([1]; read-out: EC50): > 1000 nM
Emax [2]: 64%

CCN(CC)C(=O)c1cccc(-c2ccc3nc(-c4ccc(Cl)cc4)cn3c2)c1
EC50 ([1]; read-out: EC50): > 3000 nM

CC(O)c1cccc(-c2ccc3nc(-c4ccc(Cl)cc4)cn3c2)c1 (single isomer, unassigned; (-))
EC50 ([1]; read-out: EC50): 219 nM

OCc1cccc(-c2ccc3cc(-c4ccc(Cl)cc4)cn3c2)c1
EC50 ([1]; cho): Not Active

CC(O)c1cccc(-c2ccc3nc(-c4ccc(Cl)cc4)cn3c2)c1 (single isomer, unassigned; (+))
EC50 ([1]; read-out: EC50): 75 nM
CLH [4]: 0.45 mL/h

CC(O)c1cccc(-c2ccc3nc(-c4ccc(Cl)cc4)cn3c2)c1 (racemic)
EC50 ([1]; read-out: EC50): 99 nM

CCCCCC(O)c1cccc(-c2ccc3nc(-c4ccc(Cl)cc4)cn3c2)c1 (stereo not drawn)
EC50 ([1]; read-out: EC50): > 3000 nM

OCc1cccc(-c2ccc3nc(-c4ccc(Cl)cc4)nn3n2)c1
EC50 ([1]; cho): Not Active

Clc1ccc(-c2cn3cc(-c4cccc(CN5CCCC5)c4)ccc3n2)cc1
EC50 ([1]; read-out: EC50): > 3000 nM

O=C(Nc1cnoc1)c1cn2cc(-c3ccccn3)ccc2n1
EC50 ([1]; read-out: EC50): > 1000 nM
Emax [2]: 85%
EC50 [3]: 55 nM
